Data reported in PMC7247561, “Characterization of ABC Transporters in EpiAirway™, a Cellular Model of Normal Human Bronchial Epithelium” (International Journal of Molecular Sciences, 2020).
Like-named read-outs stand apart in the source and are kept apart here.

Legend:
BCRP [1] = target: T1, BCRP (Homo sapiens, UniProt Q9UNQ0); experiment: BCRP activity, bidirectional transport of 3H-mitoxantrone in EpiAirway; conditions: 21 d at ALI, 10 µM Febuxostat
T1 sequence (Q9UNQ0 1-655): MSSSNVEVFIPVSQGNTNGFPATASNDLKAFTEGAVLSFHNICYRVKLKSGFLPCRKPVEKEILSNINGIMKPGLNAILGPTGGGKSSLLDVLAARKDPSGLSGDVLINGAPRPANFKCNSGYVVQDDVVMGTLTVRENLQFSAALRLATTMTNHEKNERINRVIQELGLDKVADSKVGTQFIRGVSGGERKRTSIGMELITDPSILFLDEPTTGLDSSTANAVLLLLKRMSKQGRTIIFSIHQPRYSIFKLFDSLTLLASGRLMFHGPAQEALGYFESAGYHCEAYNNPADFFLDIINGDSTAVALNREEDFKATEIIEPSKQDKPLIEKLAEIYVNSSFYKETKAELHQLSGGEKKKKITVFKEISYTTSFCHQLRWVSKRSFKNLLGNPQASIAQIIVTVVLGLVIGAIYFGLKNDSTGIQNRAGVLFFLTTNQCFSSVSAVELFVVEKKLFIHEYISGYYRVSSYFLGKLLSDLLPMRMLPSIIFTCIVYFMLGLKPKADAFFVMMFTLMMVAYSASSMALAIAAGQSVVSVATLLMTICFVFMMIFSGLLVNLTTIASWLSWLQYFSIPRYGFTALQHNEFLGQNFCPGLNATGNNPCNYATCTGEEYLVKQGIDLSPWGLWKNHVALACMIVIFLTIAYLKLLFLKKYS
Description: (§2) The activity of ABC transporters was assessed by measuring the apical-to-basolateral (AB) and basolateral-to-apical (BA) fluxes of specific substrates. To this aim, cell monolayers were washed twice in HBSS and equilibrated for 30 min in the same solution (pH 7.4, 37 °C). […] Aliquots of the solution in the receiver chamber were collected after 0 min, 30 min, 60 min and 120 min and replaced with fresh HBSS. The fluxes were determined by measuring fluorescence with an EnSpire® Multimode Plate Reader (Perkin Elmer), or radioactivity with MicroBeta^2 liquid scintillation spectrometer. Data obtained were employed to calculate the apparent permeability coefficient (Papp). The integrity of cell monolayers, verified by measuring TEER before and after the experiment, was not modified by the experimental procedures.
(§3) Efflux ratio (ER) was calculated as the ratio between Papp measured for BA and AB fluxes, while uptake ratio (UR) was calculated as the ratio between Papp measured for AB and BA fluxes.

BCRP [2] = target: T1, BCRP
Description: as §2, §3

MDR1 [3] = experiment: MDR1 activity, bidirectional transport of Rhodamine 123 in EpiAirway; type: in vitro ADME, human
MDR1 (P-glycoprotein) = target: T2, MDR1 (P-glycoprotein) (Homo sapiens, UniProt P08183); experiment: MDR1 activity, bidirectional transport of Rhodamine 123 in Calu-3; type: in vitro ADME; conditions: human, Calu-3, 21 d at ALI
T2 construct: MDR1 in Calu-3 cultures is expressed and operative on the apical membrane of the cells only after 21 d at ALI; endogenous in cells; host or cells: Calu-3 cells at air-liquid interface, 8 d or 21 d
T2 sequence (P08183 whole entry): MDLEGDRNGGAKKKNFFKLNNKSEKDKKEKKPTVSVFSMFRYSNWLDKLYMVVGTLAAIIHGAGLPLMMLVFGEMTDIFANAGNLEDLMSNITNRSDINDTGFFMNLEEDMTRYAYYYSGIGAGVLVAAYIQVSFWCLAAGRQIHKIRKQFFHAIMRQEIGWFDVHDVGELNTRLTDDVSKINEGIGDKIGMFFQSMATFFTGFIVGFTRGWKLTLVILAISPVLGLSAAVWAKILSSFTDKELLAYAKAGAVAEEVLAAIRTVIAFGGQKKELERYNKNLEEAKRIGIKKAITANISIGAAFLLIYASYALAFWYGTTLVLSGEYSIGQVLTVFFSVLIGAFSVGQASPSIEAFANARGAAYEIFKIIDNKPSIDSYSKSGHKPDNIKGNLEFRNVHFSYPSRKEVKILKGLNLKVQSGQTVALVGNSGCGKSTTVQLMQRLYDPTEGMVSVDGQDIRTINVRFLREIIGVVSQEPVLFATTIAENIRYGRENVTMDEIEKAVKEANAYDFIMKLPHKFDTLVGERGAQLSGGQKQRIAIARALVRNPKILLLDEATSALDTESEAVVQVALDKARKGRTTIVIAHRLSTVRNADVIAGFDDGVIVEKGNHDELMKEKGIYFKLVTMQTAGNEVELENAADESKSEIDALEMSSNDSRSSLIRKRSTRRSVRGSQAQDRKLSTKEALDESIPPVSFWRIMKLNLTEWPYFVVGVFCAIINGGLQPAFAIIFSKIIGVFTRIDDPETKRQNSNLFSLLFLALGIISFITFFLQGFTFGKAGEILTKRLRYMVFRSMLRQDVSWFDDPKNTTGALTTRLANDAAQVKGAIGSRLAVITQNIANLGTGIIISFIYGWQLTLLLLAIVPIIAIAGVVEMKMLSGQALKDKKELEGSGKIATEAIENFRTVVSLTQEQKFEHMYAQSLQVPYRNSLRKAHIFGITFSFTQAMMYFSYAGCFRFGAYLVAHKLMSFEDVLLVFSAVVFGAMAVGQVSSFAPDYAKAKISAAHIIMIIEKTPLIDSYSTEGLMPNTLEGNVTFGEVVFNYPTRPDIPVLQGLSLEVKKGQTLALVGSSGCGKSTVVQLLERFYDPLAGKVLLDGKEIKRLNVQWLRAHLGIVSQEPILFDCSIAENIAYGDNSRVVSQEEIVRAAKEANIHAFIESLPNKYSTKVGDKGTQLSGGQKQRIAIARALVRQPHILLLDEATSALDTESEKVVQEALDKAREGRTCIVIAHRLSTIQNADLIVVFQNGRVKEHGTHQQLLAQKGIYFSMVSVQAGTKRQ
Description: as §2, §3

MDR1 [4] = target: T3, MDR1 (Homo sapiens, UniProt P08183); experiment: as above; type: in vitro ADME; conditions: 1 µM Rhodamine 123
T3 construct: MDR1 in Calu-3 cultures is expressed and operative on the apical membrane of the cells only after 21 d at ALI; endogenous in cells; host or cells: Calu-3 cells at air-liquid interface, 8 d or 21 d
T3 sequence (P08183 whole entry): as above
Description: as §2, §3

Calu-3 cells = experiment: Paracellular and transcellular permeability (apical-to-basolateral Papp) in Calu-3; type: in vitro ADME, human; conditions: Calu-3, after 21 d at ALI, AB flux, 20 µM 14C-mannitol
Description: (§1) In parallel, the paracellular and transcellular permeability of cultures to solutes was assessed by monitoring the apical-to-basolateral fluxes of ^14C-mannitol and ^3H-propranolol, respectively. In detail, cell monolayers were washed and incubated for 30 min in Hank’s Balanced Salt Solution (HBSS, pH 7.4, 37 °C); HBSS containing ^14C-mannitol (1 µCi/mL, corresponding to 20 µM) or ^3H-propranolol (3 µCi/mL; 10 µM) was then added to the apical side (donor chamber) of the monolayers.

EpiAirway™ = type: in vitro ADME, human
Description: as §1

Structure (SMILES): Cc1nc(-c2ccc(OCC(C)C)c(C#N)c2)sc1C(=O)O [Febuxostat]
- effect of inhibitor on BA flux of 3H-mitoxantrone (BCRP [1]): remained almost unaffected
- effect of inhibitor on uptake ratio (UR) of 3H-mitoxantrone (BCRP [1]): slight decrease
- effect of inhibitor on Papp for AB flux of 3H-mitoxantrone (BCRP [2]): modest but significant decrease

Structure (SMILES): COC(=O)c1ccccc1-c1c2ccc(=N)cc-2oc2cc(N)ccc12 [Rhodamine 123]
- AB vs BA fluxes (MDR1 [3]; 8 d and 21 d at ALI, 1 µM Rhodamine 123): no differences
- values of Papp and ER (MDR1 [3]; Rhodamine 123 fluxes): very low
- efflux ratio at 120 min, 1 µM (MDR1 (P-glycoprotein); pH 7.4, probe Rhodamine 123, with PSC833 10 µM, 1 µM Rhodamine 123, + 10 µM PSC833, read-out: efflux ratio (ER) in the presence of the inhibitor): 2.8
- efflux ratio at 120 min, 1 µM (MDR1 (P-glycoprotein); pH 7.4, probe Rhodamine 123, 1 µM Rhodamine 123, control (no inhibitor), read-out: efflux ratio (ER)): 7
- Papp for AB vs BA fluxes (MDR1 [4]; Calu-3, 8 d at ALI): comparable
- Papp for BA transport vs AB flux (MDR1 [4]; Calu-3, 21 d at ALI): hugely higher than that of AB flux

Structure (SMILES): C/C=C/C[C@@H](C)C(=O)[C@H]1C(=O)N[C@@H](C(C)C)C(=O)N(C)CC(=O)N(C)[C@@H](CC(C)C)C(=O)N[C@@H](C(C)C)C(=O)N(C)[C@@H](CC(C)C)C(=O)N[C@@H](C)C(=O)N[C@H](C)C(=O)N(C)[C@@H](CC(C)C)C(=O)N(C)[C@@H](CC(C)C)C(=O)N(C)[C@@H](C(C)C)C(=O)N1C [PSC833]
- effect of inhibitor on Rhodamine 123 fluxes (MDR1 [3]; 8 d and 21 d at ALI, 10 µM PSC833): lack of inhibition

Structure (SMILES): OC[C@@H](O)[C@@H](O)[C@H](O)[C@H](O)CO [mannitol]
- Papp for mannitol, 21 d vs 8 d of culture (Calu-3 cells): decreased
- mannitol permeability (Papp), 8 d vs 21 d of culture (EpiAirway™): no difference

Structure (SMILES): CC(C)NCC(O)COc1cccc2ccccc12 (stereo not shown) [propranolol]
- propranolol permeability (Papp), EpiAirway vs Calu-3 (EpiAirway™; human, 120 min, 10 µM, pH 7.4): slightly higher than that of Calu-3 cells
